Columns and labels:
Type in all cases: in vivo
Spodoptera exigua = assay: Pesticidal activity against Spodoptera exigua, leaf-dipping method; settings: counted 24, 48, 72 hours, time not given, read-out: mortality rate, Spodoptera exigua
Description: Cabbage (Daiya) leaves were cut into pieces with a diameter of 5.8 cm, dipped in the pesticide composition where the compound of Synthesis Example 2 was diluted (the solvent=distilled water+acetone 50,000 mg/L+Triton X-100 100 mg/L) for 30 seconds, and sufficiently shade-dried. Then, the shade-dried cabbage leaves were placed in a petri dish (8.8 cm in diameter) covered with filter paper and repeatedly inoculated 3-5 times with the second to the third instar larvae of Spodoptera exigua, 10 larvae per inoculation. In particular, the Spodoptera exigua larvae used were those purchased from the Bio Utilization Institute (Andong, Korea). Then, the Spodoptera exigua larvae were stored under the conditions of 16 hours of light and 8 hours of dark, 25±1° C. and 50-60% relative humidity, and the number of live Spodoptera exigua larvae was counted 24, 48, and 72 hours after the inoculation. Thereafter, the larvae mortality rate was calculated in the same manner as in Test Example 1 above.

Maruca vitrta = assay: Pesticidal activity against Maruca vitrta, artificial feed-dipping method; settings: counted 24, 48, 72 hours, time not given
Description: Cabbage (Daiya) leaves were cut into pieces with a size of 1 cm×1 cm×1 cm, dipped in the pesticide composition where the compound of Synthesis Example 2 was diluted (the solvent=distilled water+acetone 50,000 mg/L+Triton X-100 100 mg/L) for 30 seconds, and then sufficiently shade-dried by placing them on aluminum foil. In this case, the artificial feed used was prepared by a process, in which (1) 13 g of agar powder and 625 mL of secondary distilled water were added into a 1 L beaker and boiled in the microwave for 10 minutes; (2) the agar boiled in the microwave was added into a blender and then 75 g of soybean powder, 20 g of red bean powder, 10 g of malt powder, and 175 mL of secondary distilled water were added thereto and mixed together; and (3) after the resulting mixture was cooled to 50° C., 5 g of a vitamin mixture, 4 g of ascorbic acid, 1 g of sorbic acid, 1 g of β-sitosterol, 10 g of glucose, 10 g of cellulose, 3 g of cholesterol, 1.5 g of methyl-p-hydroxybenzoate, 0.5 g of aureomycin, and 0.4 g of fumidil B were added thereto, mixed together, and then thoroughly cooled. Before placing the artificial feed pieces in a petri dish (¢90 mm×15 mm), parafilm (5.1 cm×5.1 cm) was placed on top of a distilled water-treated filter paper (Ø90 mm) to maintain humidity, and the artificial feed pieces were placed on top of the parafilm.
Then, the second to the third instar larvae of Maruca vitrta were repeatedly inoculated 3-5 times, 10 larvae per inoculation. In this case, the Maruca vitrta larvae used were those purchased from the Bio Utilization Institute (Andong, Korea). Then, the Maruca vitrta larvae were stored under 16 hours of light: 8 hours of dark, 25±1° C., and 50-60% relative humidity, and the number of live Maruca vitrta larvae was counted 24, 48, and 72 hours after inoculation. Thereafter, the larvae mortality rate was calculated in the same manner as in Test Example 1 above.

Grapholita molesta = assay: Pesticidal activity against Grapholita molesta, spray method; settings: spray on apples, counted 24, 72, 192 hours, time not given, read-out: mortality rate, Grapholita molesta
Description: The pesticide composition where the compound of Synthesis Example 2 was diluted (the solvent=distilled water+acetone 50,000 mg/L+Triton X-100 100 mg/L) was directly sprayed on apples using a CO2 Sprayer® [a nozzle type: Teejet8002VS (a flat fan type), pressure: 800 psi), and then apples were collected 1 hour later, and Grapholita molesta larvae were repeatedly inoculated 5-6 times, 3 per apple. In particular, the Grapholita molesta larvae were collected in the R&D Center of Kyung Nong Co., Ltd. (Gyeongju, Korea), and they were used after acclimatization indoors for 24 hours. Then, the Grapholita molesta larvae were stored under the conditions of 16 hours of light and 8 hours of dark, 25±1° C. and relative humidity of 50-60%, and the number of live Grapholita molesta larvae was counted 24, 72, and 192 hours after the inoculation. Thereafter, the larvae mortality rate was calculated in the same manner as in Test Example 1 above.

Rhopobota naevana = assay: Pesticidal activity against Rhopobota naevana, spray method; settings: spray on apple leaves, counted 24, 48, 72 hours, time not given, read-out: mortality rate, Rhopobota naevana
Description: Apple leaves were collected along with the stems, and the leaves of 3-4 base were cut into 5 cm×5 cm×5 cm pieces and placed in a tray oasis submerged in water. Then, the pesticide composition where the compound of Synthesis Example 2 was diluted (the solvent=distilled water+acetone 50,000 mg/L+Triton X-100 100 mg/L) was loaded into a 150 mL small sprayer and sprayed to the apple leaves, and 1 hour thereafter, the […] larvae were repeatedly inoculated 5-6 times, one per apple leaf. In particular, the Rhopobota naevana larvae were collected in the R&D Center of Kyung Nong Co., Ltd. (Gyeongju, Korea), and they were used after acclimatization indoors for 24 hours. Then, the Rhopobota naevana larvae were stored under the conditions of 16 hours of light and 8 hours of dark, 25±1° C. and relative humidity of 50-60%, and the number of live Rhopobota naevana larvae was counted 24, 48, and 72 hours after the inoculation. Thereafter, the larvae mortality rate was calculated in the same manner as in Test Example 1 above.

[1] = tested on: Resistant Plutella xylostella; assay: Resistance (tolerance) test against Plutella xylostella; settings: leaf-dipping, chlorantraniliprole-selected resistant individuals, counted 24 and 48 hours, read-out: mortality rate, Resistant Plutella xylostella
Description: Resistance (tolerance) tests for pesticide compositions were performed on Plutella xylostella. In this case, the Plutella xylostellas used were resistant individuals obtained as follows: radish sprouts were germinated using a moth breeding acrylic cage (25 cm×30 cm×30 cm) to induce egg-laying in a breeding room in the Chungbuk National University (Korea), and the adult insects were collected using an InsectaVac Aspirator (BioQuip®) and induced to lay eggs again by applying a selection pressure using diamide-based chlorantraniliprole at 12.5 ppm once a month to breed for multiple generations.
Cabbage leaves were dipped in the pesticide composition where the compound was diluted (the solvent=distilled water+acetone 50,000 mg/L+Triton X-100 100 mg/L) for 30 seconds, and sufficiently shade-dried. Then, the shade-dried cabbage leaves were placed in a petri dish (8.8 cm in diameter) covered with a filter paper and repeatedly inoculated 3-5 times with third instar larvae of Plutella xylostella, which are resistant individuals, 10 larvae per inoculation. Then, the Plutella xylostella larvae were stored under the conditions of 16 hours of light and 8 hours of dark, 25±1° C., and relative humidity of 50-60%, and the number of live […] larvae was counted 24 and 48 hours after the inoculation. Thereafter, the larvae mortality rate was calculated in the same manner as in Test Example 1 above, and the results are shown in Table 2 below.

Plutella xylostella = assay: Pesticidal activity against Plutella xylostella, leaf-dipping method; settings: 48 h, read-out: mortality rate, Plutella xylostella

SMILES | mortality at 1 ppm (Spodoptera exigua) [%] | mortality at 10 ppm (Spodoptera exigua) [%] | mortality rate, Maruca vitrta (Maruca vitrta; 0.1 ppm) [%] | mortality rate, Maruca vitrta (Maruca vitrta; 1 ppm) [%] | mortality at 10 ppm (Grapholita molesta) [%] | mortality at 0.1 ppm (Rhopobota naevana) [%] | mortality at 1 ppm (Rhopobota naevana) [%] | mortality at 0.1 ppm [1] [%] | mortality at 0.3 ppm [1] [%] | mortality at 1 ppm [1] [%] | mortality at 0.1 ppm (Plutella xylostella) [%] | mortality at 1 ppm (Plutella xylostella) [%] | mortality at 10 ppm (Plutella xylostella) [%]
Cc1cc(C2=NOC(c3cc(Cl)cc(C(F)(F)F)c3)(C(F)(F)F)C2)ccc1C(=O)NC(=O)C1CC1 (racemic) [Synthesis Example 2] | 100 | 100 | 100 | 100 | 85 | 100 | 100 | 93 | 96 | 100 | 100 | 100 | 100
CON=CNC(=O)c1ccc(C2=NOC(c3cc(Cl)cc(Cl)c3)(C(F)(F)F)C2)cc1C (stereo not shown) [Comparative Example 1, fluxametamide] | 100 | 100 | 23 | 90 | 85 | 83 | 100 | 34 | 38 | 58 | 100 | 100 | 100
CNC(=O)c1cc(Cl)cc(C)c1NC(=O)c1cc(Br)nn1-c1ncccc1Cl [Comparative Example 2, chlorantraniliprole] | 46 | 71 | 33 | 83 | 85 | 100 | 100 |  |  | 34 | 21 | 100 | 100

From patent US20250380697A1, “ISOXAZOLINE DERIVATIVE COMPOUND AND INSECTICIDAL COMPOSITION COMPRISING SAME” (KYUNG NONG CORPORATION, priority 2022, published 2025)
